Consider 8 molecules from patent US20080292733A1, “Antioxidant and Fe2+ Chelating Properties of Herbal Extracts” (priority 2005, published 2008).

Where two headings read alike, the source gives them in different places.

The nature of experiment [1]: Fe^2+ chelation assay (ferrozine, cell-free).
Experiment [2] has as its system N1E 115 cells. Put plainly: Neuroblastoma cell viability assay (WST-1), N1E 115. It counts as cell-based, murine. As to conditions: N1E 115, 96 hours. For orientation: Tetrazolium assays rely on reduction of a dye to a coloured formazan, in cell work by metabolically active cells.
The subject of experiment [3] is SH—SY5Y cells. Kind of experiment: Neuroblastoma cell viability assay (WST-1), SH—SY5Y. It counts as cell-based, human.
Where [4] appears, read: cell-free, 0.5 mM FeSO4, 1 mM ferrozine, titration curves, absorbance 562 nm.
[5] abbreviates: SH—SY5Y, 96 hours, dose-response.

`CC(C)=CCC[C@](C)(O[C@@H]1O[C@H](CO[C@@H]2O[C@@H](CO)[C@H](O)[C@H]2O)[C@@H](O)[C@H](O)[C@H]1O)[C@H]1CC[C@]2(C)[C@@H]1[C@H](O)C[C@@H]1[C@@]3(C)CC[C@H](O[C@@H]4O[C@H](CO)[C@@H](O)[C@H](O)[C@H]4O[C@@H]4O[C@H](CO)[C@@H](O)[C@H](O)[C@H]4O)C(C)(C)[C@@H]3CC[C@]12C` [Rc, ginsenoside Rc]: the “inhibition of Fe(ferrozine)3^2+ complex formation” value in experiment [1] (setting [4]) is “demonstrated the ability to inhibit Fe^2+ interaction with ferrozine”.

Take `O=c1c(O)c(-c2ccc(O)c(O)c2)oc2cc(O)cc(O)c12` [quercetin]: the “concentration at which significant (P<0.05) inhibition of cell number is first apparent” value was 5 µg/mL in experiment [2] and 5 µg/mL in experiment [3] (SH—SY5Y, 96 hours). Also, the “effect on cell number (dose-response curve)” value (“effect on cell number” for short) in experiment [2] and in experiment [3] (setting [5]) was “significant inhibition of cell number” throughout. In experiment [1] (setting [4]), the “inhibition of Fe(ferrozine)3^2+ complex formation” value is listed as “able to inhibit Fe(ferrozine)3^2+ complex formation”.

In the case of `CC(=O)N(O)CCCCCNC(=O)CCC(=O)N(O)CCCCCNC(=O)CCC(=O)N(O)CCCCCN` [DFO, desferroxamine, reference compound], the “effect on cell number” value in experiment [2] was “suppress neuroblastoma cell number”; in experiment [3] (setting [5]), “biphasic effects”. Moreover, the “inhibition of Fe(ferrozine)3^2+ complex formation” value in experiment [1] (setting [4]) is given as “able to prevent Fe(ferrozine)3^2+ complex formation”.

Turning to `C[C@@H]1C(=O)O[C@H]2C[C@@]34[C@H]5C[C@@H](C(C)(C)C)[C@]36[C@@H](OC(=O)[C@@H]6O)O[C@@]4(C(=O)O5)[C@]21O` [ginkgolide A], the “effect on cell number” value in experiment [2] and in experiment [3] (setting [5]) was “Only quercetin demonstrated significant inhibition of cell number” each time. Also, in experiment [1], the “inhibition of Fe(ferrozine)3^2+ complex formation” value is listed as “no activity”.

In the case of `CC(C)=CCC[C@](C)(O[C@@H]1O[C@H](CO)[C@@H](O)[C@H](O)[C@H]1O)[C@H]1CC[C@]2(C)[C@@H]1[C@H](O)C[C@@H]1[C@@]3(C)CC[C@H](O[C@@H]4O[C@H](CO)[C@@H](O)[C@H](O)[C@H]4O[C@@H]4O[C@H](CO)[C@@H](O)[C@H](O)[C@H]4O)C(C)(C)[C@@H]3CC[C@]12C` [Rd, ginsenoside Rd], the “inhibition of Fe(ferrozine)3^2+ complex formation” value in experiment [1] (setting [4]) was “demonstrated the ability to inhibit Fe^2+ interaction with ferrozine”.

As to `CC(C)=CCC[C@](C)(O[C@@H]1O[C@H](CO[C@@H]2O[C@H](CO)[C@@H](O)[C@H](O)[C@H]2O)[C@@H](O)[C@H](O)[C@H]1O)[C@H]1CC[C@]2(C)[C@@H]1[C@H](O)C[C@@H]1[C@@]3(C)CC[C@H](O[C@@H]4O[C@H](CO)[C@@H](O)[C@H](O)[C@H]4O[C@@H]4O[C@H](CO)[C@@H](O)[C@H](O)[C@H]4O)C(C)(C)[C@@H]3CC[C@]12C` [Rb1, ginsenoside Rb1], the “inhibition of Fe(ferrozine)3^2+ complex formation” value in experiment [1] (setting [4]) is “demonstrated the ability to inhibit Fe^2+ interaction with ferrozine”.

On to `CC1C(=O)OC2C(O)C34C5CC(C(C)(C)C)C36C(OC(=O)C6O)OC4(C(=O)O5)C12O` (stereo not shown) [ginkgolide B], for which the “effect on cell number” value in experiment [2] and in experiment [3] (setting [5]) was “Only quercetin demonstrated significant inhibition of cell number” each time. Besides, the “inhibition of Fe(ferrozine)3^2+ complex formation” value in experiment [1] (setting [4]) is “no activity”.

For `CC(C)=CCC[C@]1(C)[C@@H](CC=C(C)C)C[C@@]2(CC=C(C)C)C(=O)[C@]1(C(=O)C(C)C)C(=O)C(CC=C(C)C)=C2O` [hyperforin], the “effect on cell number” value is “significant and dose-dependent suppression of cell number” in experiment [2]; “significant and dose-dependent suppression of cell number” in experiment [3].
